# Source: patent US20030220386A1, “Delta 1-pyrrolines for use as pesticides” (priority 2000, published 2003)
# Assays:
# [1] = system: fruit tree spider mite (Panonychus ulmi); assay: Panonychus test; assay type: in vivo; conditions: 200 ppm, plum trees sprayed
# Description: (§1) After the desired period of time, the activity in % is determined.
# [2] = system: greenhouse red spider mite (Tetranychus urticae); assay: Tetranychus test (OP-resistant/dip treatment); assay type: in vivo; conditions: 100 ppm, bean plants dipped
# Description: as §1
# [3] = system: Amblyomma hebraeum nymphs; assay: Test with polyphagous tick nymphs, dip treatment; assay type: in vivo; conditions: nymphs immersed for 1 minute; after 4 weeks
# Description: (§2) 20 mg of active compound are dissolved in one ml of dimethyl sulphoxide. To prepare a suitable formulation, the solution of active compound is diluted with water to the concentration desired in each case.
# 10 nymphs which have sucked themselves full are immersed for 1 minute into the preparation of active compound to be tested. The animals are transferred to Petri dishes (Ø 9.5 cm) fitted with filter discs and covered. After 4 weeks of storage in a climatized room, the mortality is determined.
# 100% means that none of the animals has undergone normal ecdysis. 0% means that all animals have undergone ecdysis.
# [4] = system: larvae of the mustard beetle (Phaedon cochleariae); assay: Phaedon larvae test; conditions: 1000 ppm, cabbage leaves dipped
# [5] = system: peach aphid (Myzus persicae); assay: Myzus test; assay type: in vivo; conditions: 500 ppm, cabbage leaves dipped
# [6] = system: Lucilia cuprina larvae; assay: Blowfly larvae test/Development-inhibitory action; assay type: in vivo; conditions: 100 ppm; mortality of the larvae after 48 hours
# Description: as §2
# About 20 Lucilia cuprina larvae are introduced into a test tube which contains about 1 cm^3 of horsemeat and 0.5 ml of the preparation of active compound to be tested. The activity of the preparation of active compound is determined after 48 hours as the mortality of the larvae in %.
# The test tubes are then transferred into a beaker whose bottom is covered with sand. After a further 12 days, the test tubes are removed and the pupae and flies are counted. The development-inhibitory action is stated as inhibition of hatching in % (ratio of pupae to flies that have hatched) after 1.5 times the development period of an untreated control.
# [7] = logP determination by HPLC (reversed-phase C 18), EEC Directive 79/831 Annex V.A8; assay type: physicochemical; conditions: reversed-phase C18 HPLC column, pH 2.3, 0.1% aqueous phosphoric acid/acetonitrile, 43° C., read-out: log P (pH 2.3)
# Description: The logP values given in the tables and preparation examples above are determined in accordance with EEC Directive 79/831 Annex V.A8 by HPLC (High Performance Liquid Chromatography) using a reversed-phase column (C 18). Temperature: 43° C.
# In the acidic range, the determination is carried out at pH 2.3 using the mobile phases 0.1% aqueous phosphoric acid and acetonitrile; linear gradient from 10% acetonitrile to 90% acetonitrile.
# In the neutral range, the determination is carried out at pH 7.5 using the mobile phases 0.01 molar aqueous phosphate buffer solution and acetonitrile; linear gradient from 10% acetonitrile to 90% acetonitrile.
# Calibration is carried out using unbranched alkan-2-ones (of 3 to 16 carbon atoms) with known logP values (determination of the logP values by the retention times using linear interpolation between two successive alkanones).
# [8] = system: caterpillars of the diamondback moth (Plutella xylostella); assay: Plutella test; assay type: in vivo; conditions: 500 ppm, cabbage leaves dipped
# [9] = system: larvae of the armyworm (Spodoptera frugiperda); assay: Spodoptera frugiperda test; assay type: in vivo; conditions: 500 ppm, cabbage leaves dipped
# [10] = system: larvae of the armyworm (Spodoptera exigua); assay: Spodoptera exigua test; assay type: in vivo; conditions: 500 ppm, cabbage leaves dipped
# [11] = system: cotton aphid (Aphis gossypii); assay: Aphis gossypii test; assay type: in vivo; conditions: 100 ppm, cotton leaves dipped
compound,measurement,setting,value
"O=S(=O)(Oc1ccc([C@H]2CCC(c3c(F)cccc3F)=N2)cc1)C(F)(F)F [I-2, (2R)-4-[5-(2,6-Difluorophenyl)-3,4-dihydro-2H-pyrrol-2-yl]phenyl trifluoromethanesulphonate]",Kill rate in % after 7 days,[1],98%
same,Kill rate in % after 7 days,[2],98%
same,activity (mortality / no normal ecdysis),[3],good activity
same,Kill rate in % after 7 days,[4],100%
same,Kill rate in % after 6 days,[5],98%
same,Action in % after 48 hours,[6],100%
same,chromatographic logP,[7],3.55
same,Kill rate in % after 6 days,[8],100%
same,Kill rate in % after 6 days,[9],95%
same,Kill rate in % after 6 days,[10],100%
same,Kill rate in % after 6 days,[11],90%
